The values below come from ChEMBL document CHEMBL1268993, “Tri- and tetrasubstituted imidazoles as p38α mitogen-activated protein kinase inhibitors” (Bioorg Med Chem Lett, 2010).

In general, IC50 refers to the concentration that inhibits the measured activity by half. Read a low IC50 as inhibition by little substance.

The test deals with Mitogen-activated protein kinase 14 (Homo sapiens, UniProt Q16539). Put plainly: Inhibition of p38alpha by immunosorbent based assay.
Chain of Mitogen-activated protein kinase 14 (Q16539 whole entry): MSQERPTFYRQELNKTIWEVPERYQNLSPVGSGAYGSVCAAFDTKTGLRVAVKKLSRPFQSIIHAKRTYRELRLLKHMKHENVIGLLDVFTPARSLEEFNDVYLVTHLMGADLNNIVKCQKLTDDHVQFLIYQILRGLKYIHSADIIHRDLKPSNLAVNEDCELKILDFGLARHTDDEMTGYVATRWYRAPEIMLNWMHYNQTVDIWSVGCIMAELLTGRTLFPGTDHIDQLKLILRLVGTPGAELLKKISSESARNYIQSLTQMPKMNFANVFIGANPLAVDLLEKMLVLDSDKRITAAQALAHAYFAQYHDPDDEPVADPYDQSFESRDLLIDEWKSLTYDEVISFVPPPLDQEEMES
Molecule `CCC(=O)Nc1cc(-c2c(-c3ccc(F)cc3)nc(SC)n2CCOC)ccn1` came in with an IC50 of 180 nM.
The value for `CSc1nc(-c2ccc(F)cc2)c(-c2ccnc(NC(C)=O)c2)n1CCC(=O)N1CCCCC1` was 2240 nM; that for `CSc1nc(-c2ccc(F)cc2)c(-c2ccnc(NC(C)=O)c2)n1CCC(=O)N1CCOCC1` was 1570 nM.
For `CSc1nc(-c2ccc(F)cc2)c(-c2ccnc(NC(=O)/C=C/c3c(Cl)cccc3Cl)c2)[nH]1`, inhibition was half-maximal at 3 nM (IC50).
With `CSc1nc(-c2ccc(F)cc2)c(-c2ccnc(NC(=O)/C(F)=C/c3ccccc3)c2)[nH]1`, inhibition was half-maximal at 27 nM (IC50).
The molecule `CCN(CC)C(=O)Cn1c(SC)nc(-c2ccc(F)cc2)c1-c1ccnc(NC(C)=O)c1` yielded an IC50 of 60 nM.
Turning to `CSc1nc(-c2ccc(F)cc2)c(-c2ccnc(NC(C)=O)c2)n1CC(=O)N1CCOCC1`, the IC50 amounted to 280 nM.
Consider `CSc1nc(-c2ccnc(NC(=O)Cc3ccc(F)cc3)c2)c(-c2ccc(F)cc2)[nH]1`, for which the IC50 came to 9 nM. Compared with the last molecule, the IC50 is about 31-fold lower.
`CSc1nc(-c2ccc(F)cc2)c(-c2ccnc(NC(=O)c3ccc(C)c(F)c3)c2)[nH]1`: the IC50 came to 14 nM.
`CSc1nc(-c2ccc(F)cc2)c(-c2ccnc(NC(C)=O)c2)n1C1CCOCC1` yielded an IC50 of 780 nM. This IC50 lies about 56-fold higher than the previous one.
In turn, `CSc1nc(-c2ccc(F)cc2)c(-c2ccnc(NC(C)=O)c2)n1[C@H]1CC[C@H](O)CC1` displayed an IC50 of 320 nM.
The value for `CSc1nc(-c2ccc(F)cc2)c(-c2ccnc(NC(=O)COc3ccc(Cl)cc3)c2)[nH]1` was 100 nM; that for `CSc1nc(-c2ccc(F)cc2)c(-c2ccnc(NC(=O)COc3ccc(Cl)cc3Cl)c2)[nH]1` was 160 nM.
`CSc1nc(-c2ccc(F)cc2)c(-c2ccnc(NC(C)=O)c2)n1C1CCCCC1`: 790 nM corresponded to half-maximal inhibition (IC50).
On to `CSc1nc(-c2ccc(F)cc2)c(-c2ccnc(NC(C)=O)c2)n1C1CC1`, for which it took 400 nM to reach half-maximal inhibition (IC50).
As to `CSc1nc(-c2ccc(F)cc2)c(-c2ccnc(NC(=O)COc3cccc(Cl)c3Cl)c2)[nH]1`, the IC50 is 160 nM.
`CSc1nc(-c2ccc(F)cc2)c(-c2ccnc(NC(=O)c3cc4ccccc4o3)c2)[nH]1` displayed an IC50 of 53 nM.
As for `CCC(CC)n1c(SC)nc(-c2ccc(F)cc2)c1-c1ccnc(NC(C)=O)c1`, the 50% inhibitory concentration (IC50) was 570 nM.
`CSc1nc(-c2ccc(F)cc2)c(-c2ccnc(NC(C)=O)c2)n1CCCl`: 150 nM corresponded to half-maximal inhibition (IC50). Against the preceding molecule, the IC50 is about 3.8-fold lower.
For the molecule `CSc1nc(-c2ccc(F)cc2)c(-c2ccnc(NC(=O)C3=Cc4ccccc4OC3)c2)[nH]1`, the IC50 is 27 nM.
The value for `CSc1nc(-c2ccc(F)cc2)c(-c2ccnc(NC(=O)C(C)c3ccc(CC(C)C)cc3)c2)[nH]1` (centres undefined) was 90 nM; that for `CSc1nc(-c2ccc(F)cc2)c(-c2ccnc(NC(C)=O)c2)n1CCCCl` was 17 nM; that for `CSc1nc(-c2ccc(F)cc2)c(-c2ccnc(NC(C)=O)c2)n1CCCCCl` was 180 nM.
The value for `CSc1nc(-c2ccc(F)cc2)c(-c2ccnc(NC(=O)CCc3ccc(C(C)(C)C)cc3)c2)[nH]1` was 130 nM.
The figure for `CSc1nc(-c2ccc(F)cc2)c(-c2ccnc(NC(=O)c3ccco3)c2)[nH]1` is 13 nM; for `CSc1nc(-c2ccc(F)cc2)c(-c2ccnc(NC(C)=O)c2)n1CCCBr` it is 27 nM; for `CSc1nc(-c2ccc(F)cc2)c(-c2ccnc(NC(C)=O)c2)n1CCCF` it is 180 nM.
In turn, `CSc1nc(-c2ccc(F)cc2)c(-c2ccnc(NC(=O)c3ccc(-c4ccccc4)cc3)c2)[nH]1` showed an IC50 of 100 nM.
As to `CSc1nc(-c2ccc(F)cc2)c(-c2ccnc(NC(C)=O)c2)n1CCCI`, inhibition was half-maximal at 19 nM (IC50). Compared with the last molecule, the IC50 is about 5.3-fold lower.
In turn, `C=CC(=O)Nc1cc(-c2c(-c3ccc(F)cc3)nc(SC)n2CCOC)ccn1` registered an IC50 of 170 nM.
Take `COCCn1c(SC)nc(-c2ccc(F)cc2)c1-c1ccnc(NC(=O)CC(F)(F)F)c1`: it took 490 nM to reach half-maximal inhibition (IC50).
Molecule `COCCn1c(SC)nc(-c2ccc(F)cc2)c1-c1ccnc(NC(=O)c2cccs2)c1` showed an IC50 of 240 nM.
On to `CCn1c(SC)nc(-c2ccc(F)cc2)c1-c1ccnc(NC(=O)/C=C/c2c(Cl)cccc2Cl)c1`, for which the IC50 worked out at 100 nM. This IC50 lies about 2.4-fold lower than the previous one.
The value for `CSc1nc(-c2ccc(F)cc2)c(-c2ccnc(NC(C)=O)c2)n1CCCCO` was 140 nM; that for `CCn1c(SC)nc(-c2ccc(F)cc2)c1-c1ccnc(NC(=O)/C=C/c2ccc(OC)cc2OC)c1` was 38 nM; that for `CCn1c(SC)nc(-c2ccc(F)cc2)c1-c1ccnc(NC(=O)/C=C/c2ccc(OC)cc2)c1` was 75 nM.
`CSc1nc(-c2ccc(F)cc2)c(-c2ccnc(NC(C)=O)c2)n1CC(O)CO` (centres undefined) returned an IC50 of 1490 nM.
The value for `CSc1nc(-c2ccc(F)cc2)c(-c2ccnc(NC(C)=O)c2)n1C(CO)CO` was 6280 nM; that for `CCn1c(SC)nc(-c2ccc(F)cc2)c1-c1ccnc(NC(=O)Cc2ccc(F)cc2)c1` was 93 nM; that for `CSc1nc(-c2ccc(F)cc2)c(-c2ccnc(NC(=O)/C=C/c3c(Cl)cccc3Cl)c2)n1C` was 170 nM.
The value for `CSc1nc(-c2ccc(F)cc2)c(-c2ccnc(NC(C)=O)c2)n1C(CCO)CCO` was 6140 nM; that for `CSc1nc(-c2ccc(F)cc2)c(-c2ccnc(NC(C)=O)c2)n1CCC(=O)O` was 2260 nM; that for `COc1ccc(/C=C/C(=O)Nc2cc(-c3c(-c4ccc(F)cc4)nc(SC)n3C)ccn2)c(OC)c1` was 280 nM.
In the case of `COc1ccc(/C=C/C(=O)Nc2cc(-c3c(-c4ccc(F)cc4)nc(SC)n3C)ccn2)cc1`, it took 18 nM to reach half-maximal inhibition (IC50).
The value for `CCOC(=O)CCn1c(SC)nc(-c2ccc(F)cc2)c1-c1ccnc(NC(C)=O)c1` was 440 nM.
The molecule `COC(=O)CCn1c(SC)nc(-c2ccc(F)cc2)c1-c1ccnc(NC(C)=O)c1` came in with an IC50 of 330 nM.
`CSc1nc(-c2ccc(F)cc2)c(-c2ccnc(NC(=O)Cc3ccc(F)cc3)c2)n1C` had an IC50 of 130 nM.
`CSc1nc(-c2ccc(F)cc2)c(-c2ccnc(NC(=O)Cc3ccc(Cl)cc3)c2)n1C` had an IC50 of 22 nM.
The figure for `CSc1nc(-c2ccc(F)cc2)c(-c2ccnc(NC(C)=O)c2)n1CCCC(=O)O` is 1620 nM.
The value for `CSc1nc(-c2ccc(F)cc2)c(-c2ccnc(NC(C)=O)c2)n1CCCCC(=O)O` was 770 nM; that for `CSc1nc(-c2ccc(F)cc2)c(-c2ccnc(NC(=O)C3CC3)c2)n1C` was 170 nM; that for `CSc1nc(-c2ccc(F)cc2)c(-c2ccnc(NC(=O)C3CCCC3)c2)n1C` was 150 nM.
The figure for `CSc1nc(-c2ccc(F)cc2)c(-c2ccnc(NC(C)=O)c2)n1CCC(=O)N1CCCC1` is 1140 nM; for `CCN(CC)C(=O)CCn1c(SC)nc(-c2ccc(F)cc2)c1-c1ccnc(NC(C)=O)c1` it is 1200 nM; for `CSc1nc(-c2ccc(F)cc2)c(-c2ccnc(NC(=O)/C=C/c3ccc(C)cc3)c2)[nH]1` it is 32 nM.
For `COc1ccc(/C=C/C(=O)Nc2cc(-c3[nH]c(SC)nc3-c3ccc(F)cc3)ccn2)cc1`, it took 10 nM to reach half-maximal inhibition (IC50).
Consider `CSc1nc(-c2ccc(F)cc2)c(-c2ccnc(NC(C)=O)c2)n1CCO`, for which the IC50 was found to be 110 nM.
Turning to `CSc1nc(-c2ccc(F)cc2)c(-c2ccnc(NC(C)=O)c2)n1CCCO`, half-maximal inhibition (IC50) was put at 150 nM.
As for `COCCn1c(SC)nc(-c2ccc(F)cc2)c1-c1ccnc(NC(C)=O)c1`, the midpoint of inhibition, the IC50, lay at 110 nM.
